{"source": "patent US4069318A", "about": "“N^2 -Alkoxynaphthalenesulfonyl-L-argininamides and the pharmaceutically acceptable salts thereof” (Mitsubishi Chemical Industries Ltd., priority 1974, dated 1978)", "key": {"[1]": {"test": "acute toxicity (LD50) by intraperitoneal administration in mice", "conditions": "mouse, in vivo, ip, mice (male, 20 g)", "from_the_text": "On the other hand, LD50 values for N^2 -dansyl-N-butyl-L-argininamide and N^2 -dansyl-N-methyl-N-butyl-L-argininamide are 75 and 70 milligrams per kilogram, respectively."}, "thrombin": {"biological_target": "T1, thrombin (Bos taurus, UniProt P00735)", "T1 construct": "bovine fibrinogen as substrate", "test": "fibrinogen coagulation time (thrombin-induced)", "assay_type": "biochemical", "conditions": "bovine fibrinogen, thrombin 5 units/ml, borate saline buffer pH 7.4, 25° C; control 50-55 seconds; read-out: Concentration required to prolong the coagulation time by a factor of two", "protocol": "Immediately after mixing, the reaction mixture was transferred from the ice bath to a bath maintained at 25° C. Coagulation times were taken as the period between the time of transference to the 25° C bath and the time of the first appearance of fibrin threads."}}, "data": [{"compound": "COc1ccc2cc(S(=O)(=O)N[C@@H](CCCNC(=N)N)C(=O)N(CC(=O)O)Cc3ccccc3)cc(OC)c2c1", "note": "[Sample 10, N^2-(4,6-dimethoxy-2-naphthalenesulfonyl)-L-arginyl-N-benzylglycine]", "values": [{"measurement": "LD50", "setting": "[1]", "result": "> 1000", "unit": "mg/kg"}]}, {"compound": "COc1cc2ccc(S(=O)(=O)N[C@@H](CCCNC(=N)N)C(=O)N(CC(=O)O)Cc3ccccc3)cc2cc1OC", "note": "[Sample 2, N^2-(6,7-dimethoxy-2-naphthalenesulfonyl)-L-arginyl-N-benzylglycine]", "values": [{"measurement": "LD50", "setting": "[1]", "result": "> 1000", "unit": "mg/kg"}]}, {"compound": "CCCCN(C)C(=O)[C@H](CCCNC(=N)N)NS(=O)(=O)c1cccc2c(N(C)C)cccc12", "note": "[N^2 -dansyl-N-methyl-N-butyl-L-argininamide, reference compound]", "values": [{"measurement": "LD50", "setting": "[1]", "result": 70, "unit": "mg/kg"}]}, {"compound": "CCCCNC(=O)[C@H](CCCNC(=N)N)NS(=O)(=O)c1cccc2c(N(C)C)cccc12", "note": "[N^2 -dansyl-N-butyl-L-argininamide, reference compound]", "values": [{"measurement": "LD50", "setting": "[1]", "result": 75, "unit": "mg/kg"}]}, {"compound": "COc1cccc2c(S(=O)(=O)N[C@@H](CCCNC(=N)N)C(=O)N(CC(=O)O)Cc3ccccc3)cccc12", "note": "[Sample 18, N^2-(5-methoxy-1-naphthalenesulfonyl)-L-arginyl-N-benzylglycine]", "values": [{"measurement": "IC (2-fold clotting time)", "setting": "thrombin", "result": 2, "unit": "µM"}, {"measurement": "LD50", "setting": "[1]", "result": "> 1000", "unit": "mg/kg"}]}, {"compound": "COc1cc2ccc(S(=O)(=O)N[C@@H](CCCNC(=N)N)C(=O)N(CCc3ccccc3)CC(=O)O)cc2cc1OC", "note": "[Sample 6, N^2-(6,7-dimethoxy-2-naphthalenesulfonyl)-L-arginyl-N-phenethylglycine]", "values": [{"measurement": "LD50", "setting": "[1]", "result": "> 1500", "unit": "mg/kg"}]}]}
